Test results: the NIST ThermoML archive (doi:10.1016/j.jct.2015.04.015)
Numbers after ± are expanded uncertainties.

Settings: Gas, Rotating-body viscometer developed for low-density gases

O=C=O [carbon dioxide]
Settings	viscosity [mPa·s]
253.15 K, 100.2 kPa	0.01271 ± 5.2e-05
253.15 K, 153 kPa	0.01271 ± 5.2e-05
253.15 K, 200.5 kPa	0.01271 ± 5.2e-05
253.15 K, 300.5 kPa	0.01271 ± 5.2e-05
253.15 K, 401.4 kPa	0.01272 ± 5.2e-05
273.17 K, 100.4 kPa	0.01371 ± 5.2e-05
273.17 K, 151.8 kPa	0.0137 ± 5.2e-05
273.17 K, 203.4 kPa	0.0137 ± 5.2e-05
273.17 K, 301.7 kPa	0.01371 ± 5.2e-05
273.17 K, 399.4 kPa	0.01371 ± 5.2e-05
273.17 K, 502.8 kPa	0.01372 ± 5.2e-05
298.15 K, 100.8 kPa	0.0149 ± 3e-05
298.15 K, 150.4 kPa	0.01491 ± 3e-05
298.15 K, 201.6 kPa	0.0149 ± 3e-05
298.15 K, 204.6 kPa	0.0149 ± 3e-05
298.15 K, 303.2 kPa	0.01491 ± 3e-05
298.15 K, 303.3 kPa	0.01491 ± 3e-05
298.15 K, 400 kPa	0.01493 ± 3e-05
298.15 K, 402.9 kPa	0.01492 ± 3e-05
298.15 K, 498.5 kPa	0.01493 ± 3e-05
298.15 K, 499.7 kPa	0.01494 ± 3e-05
298.15 K, 502.8 kPa	0.01494 ± 3e-05
298.15 K, 604.5 kPa	0.01494 ± 3e-05
323.16 K, 100.8 kPa	0.01608 ± 5.1e-05
323.16 K, 151.6 kPa	0.01608 ± 5.1e-05
323.16 K, 200.9 kPa	0.01609 ± 5.1e-05
323.16 K, 304.9 kPa	0.0161 ± 5.1e-05
323.16 K, 400.7 kPa	0.0161 ± 5.1e-05
323.16 K, 500.4 kPa	0.01612 ± 5.1e-05
323.16 K, 598.7 kPa	0.01613 ± 5.1e-05
373.16 K, 100.4 kPa	0.0184 ± 5e-05
373.16 K, 151.4 kPa	0.0184 ± 5e-05
373.16 K, 201.1 kPa	0.0184 ± 5e-05
373.16 K, 296.8 kPa	0.01842 ± 5e-05
373.16 K, 399.9 kPa	0.01843 ± 5e-05
373.16 K, 604.9 kPa	0.01846 ± 5e-05
373.16 K, 802.6 kPa	0.01849 ± 5e-05
423.14 K, 100.2 kPa	0.02065 ± 5e-05
423.14 K, 153.3 kPa	0.02066 ± 5e-05
423.14 K, 204.1 kPa	0.02065 ± 5e-05
423.14 K, 302 kPa	0.02066 ± 5e-05
423.14 K, 397.6 kPa	0.02068 ± 5e-05
423.14 K, 600.4 kPa	0.0207 ± 5e-05
423.14 K, 800.8 kPa	0.02073 ± 5e-05
423.14 K, 998.9 kPa	0.02077 ± 5e-05
473.15 K, 153 kPa	0.02275 ± 5e-05
473.15 K, 202.5 kPa	0.02277 ± 5e-05
473.15 K, 403.5 kPa	0.02278 ± 5e-05
473.15 K, 601.1 kPa	0.02282 ± 5e-05
473.15 K, 803 kPa	0.02284 ± 5e-05
473.15 K, 997.8 kPa	0.02288 ± 5e-05
473.15 K, 1200.9 kPa	0.0229 ± 5e-05
473.16 K, 100.1 kPa	0.02275 ± 5e-05
